Experiments:
Homo sapiens = organism: Homo sapiens; experiment: Selectivity ratio of IC50 for human MAO-A to IC50 for human MAO-B
[1] = molecular target: T1, Amine oxidase [flavin-containing] A (Homo sapiens, UniProt P21397); experiment: Inhibition of human MAO-A expressed in baculovirus infected BTI-TN-5B1-4 cells using p-tyramine as substrate at 100 uM incubated for 15 mins prior to substrate addition measured for 15 mins by Amplex red assay; details: for inhibition at 100 µM: BTI-TN-5B1-4, human, 0.25 h; for inhibition (INH): human, bti-tn-5b1-4, 0.25 h, 100 µM
T1 sequence (P21397 whole entry): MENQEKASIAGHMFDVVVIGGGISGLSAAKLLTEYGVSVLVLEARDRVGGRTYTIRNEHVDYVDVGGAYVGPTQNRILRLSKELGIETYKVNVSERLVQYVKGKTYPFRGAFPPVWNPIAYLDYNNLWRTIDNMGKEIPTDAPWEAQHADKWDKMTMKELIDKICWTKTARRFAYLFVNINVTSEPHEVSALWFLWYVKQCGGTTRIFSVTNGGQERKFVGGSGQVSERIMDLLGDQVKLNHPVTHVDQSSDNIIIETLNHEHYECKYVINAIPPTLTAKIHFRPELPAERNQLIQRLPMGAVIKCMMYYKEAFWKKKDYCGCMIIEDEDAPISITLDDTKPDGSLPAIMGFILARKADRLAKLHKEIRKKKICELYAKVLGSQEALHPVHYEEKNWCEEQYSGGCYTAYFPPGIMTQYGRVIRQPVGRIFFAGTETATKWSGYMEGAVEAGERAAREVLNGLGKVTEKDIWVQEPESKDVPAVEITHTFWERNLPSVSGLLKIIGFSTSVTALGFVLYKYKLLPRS

[2] = molecular target: T2, Amine oxidase [flavin-containing] B (Homo sapiens, UniProt P27338); experiment: biochemical; format: cell-based, BTI-TN-5B1-4
T2 sequence (P27338 whole entry): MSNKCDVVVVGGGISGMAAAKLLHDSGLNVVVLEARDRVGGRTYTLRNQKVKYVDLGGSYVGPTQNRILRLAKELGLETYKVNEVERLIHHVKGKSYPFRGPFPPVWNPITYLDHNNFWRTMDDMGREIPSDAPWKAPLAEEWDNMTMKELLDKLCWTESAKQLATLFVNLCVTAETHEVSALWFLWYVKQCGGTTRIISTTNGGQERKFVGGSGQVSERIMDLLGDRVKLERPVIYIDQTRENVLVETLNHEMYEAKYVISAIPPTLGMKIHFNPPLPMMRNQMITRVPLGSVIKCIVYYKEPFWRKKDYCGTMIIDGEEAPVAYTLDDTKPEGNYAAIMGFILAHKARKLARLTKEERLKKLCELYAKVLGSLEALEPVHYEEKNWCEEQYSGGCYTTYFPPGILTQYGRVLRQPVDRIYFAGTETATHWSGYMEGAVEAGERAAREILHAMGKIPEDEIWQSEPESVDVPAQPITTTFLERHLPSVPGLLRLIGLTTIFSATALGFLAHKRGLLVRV
Description: Inhibition of human MAO-B expressed in baculovirus infected BTI-TN-5B1-4 cells using p-tyramine as substrate incubated for 15 mins prior to substrate addition measured for 15 mins by Amplex red assay

[3] = molecular target: T1, Amine oxidase [flavin-containing] A; experiment: Inhibition of human MAO-A expressed in baculovirus infected BTI-TN-5B1-4 cells using p-tyramine as substrate incubated for 15 mins prior to substrate addition measured for 15 mins by Amplex red assay
[4] = molecular target: T2, Amine oxidase [flavin-containing] B; experiment: Inhibition of human MAO-B expressed in baculovirus infected BTI-TN-5B1-4 cells using p-tyramine as substrate at 100 uM incubated for 15 mins prior to substrate addition measured for 15 mins by Amplex red assay; details: for inhibition (INH): human, bti-tn-5b1-4, 0.25 h, 100 µM; for inhibition at 100 µM: BTI-TN-5B1-4, human, 0.25 h

| Ratio IC50 (Homo sapiens) | inhibition at 100 µM [1] [%] | IC50 [2] [nM] | IC50 [3] [nM] | inhibition (INH) [4] | inhibition (INH) [1] | inhibition at 100 µM [4] [%] | SMILES |
| --- | --- | --- | --- | --- | --- | --- | --- |
| > 67 | 40 | 1490 |  |  |  |  | N#Cc1ccc(-c2csc(N/N=C\c3ccco3)n2)cc1 |
| 235 |  | 90.3 | 21200 |  |  |  | C/C(=N/Nc1nc(-c2ccc(F)cc2F)cs1)c1ccccc1 |
|  | 40 | 3590 |  |  |  |  | C/C(=N/Nc1nc(-c2ccc([N+](=O)[O-])cc2)cs1)c1ccco1 |
|  |  |  |  | Not Active | Not Active |  | C/C(=N/Nc1nc(-c2ccc(F)cc2)cs1)c1cc2ccccc2oc1=O |
| > 504 | 40 | 199 |  |  |  |  | Fc1ccc(-c2csc(N/N=C\c3cccnc3)n2)c(F)c1 |
|  |  |  |  |  | Not Active | 40 | C/C(=N/Nc1nc(-c2ccc(F)cc2F)cs1)c1ccc2ccccc2c1 |
| > 33200 | 40 | 3.01 |  |  |  |  | C/C(=N/Nc1nc(-c2ccc(F)cc2F)cs1)c1cccs1 |
|  |  |  |  | Not Active | Not Active |  | O=[N+]([O-])c1ccc(-c2csc(N/N=C\c3c[nH]c4ccccc34)n2)cc1 |
| > 153 | 40 | 653 |  |  |  |  | Fc1ccc(-c2csc(N/N=C\c3ccco3)n2)cc1 |
| > 6460 | 40 | 15.5 |  |  |  |  | C/C(=N/Nc1nc(-c2ccc(F)cc2)cs1)c1cccs1 |
|  |  |  |  | Not Active | Not Active |  | C/C(=N/Nc1nc(-c2ccc([N+](=O)[O-])cc2)cs1)c1cccnc1 |
|  | 40 |  |  |  |  | 40 | C/C(=N/Nc1nc(-c2ccc([N+](=O)[O-])cc2)cs1)c1ccccc1 |
| > 47800 | 40 | 2.09 |  |  |  |  | C/C(=N/Nc1nc(-c2ccc(C#N)cc2)cs1)c1cccnc1 |
| > 5430 | 40 | 18.4 |  |  |  |  | C/C(=N/Nc1nc(-c2ccc(F)cc2F)cs1)c1cccnc1 |
| > 85 | 40 | 1170 |  |  |  |  | Fc1ccc(-c2csc(N/N=C\c3ccc4c(c3)OCO4)n2)c(F)c1 |
| 12 |  | 351 | 4180 |  |  |  | C/C(=N/Nc1nc(-c2ccc(F)cc2)cs1)c1ccccc1 |
| > 91 | 40 | 1100 |  |  |  |  | N#Cc1ccc(-c2csc(N/N=C\c3cccc4ccccc34)n2)cc1 |
|  | 40 |  |  |  |  | 40 | C/C(=N/Nc1nc(-c2ccc(C#N)cc2)cs1)c1ccco1 |
| 42 |  | 217 | 9110 |  |  |  | Fc1ccc(-c2csc(N/N=C\c3ccco3)n2)c(F)c1 |

| Ratio IC50 (Homo sapiens) | inhibition at 100 µM [1] [%] | IC50 [2] [nM] | IC50 [3] [nM] | inhibition (INH) [4] | inhibition (INH) [1] | inhibition at 100 µM [4] [%] | SMILES |
| --- | --- | --- | --- | --- | --- | --- | --- |
| > 173 | 40 | 578 |  |  |  |  | Fc1ccc(-c2csc(N/N=C\c3c[nH]c4ccccc34)n2)cc1 |
| 18 |  | 320 | 5670 |  |  |  | C/C(=N/Nc1nc(-c2ccc(F)cc2)cs1)c1ccco1 |
|  |  |  |  |  | Not Active | 40 | C/C(=N/Nc1nc(-c2ccc(C#N)cc2)cs1)c1ccc2ccccc2c1 |
| 2.9 |  | 996 | 2850 |  |  |  | C/C(=N/Nc1nc(-c2ccc(C#N)cc2)cs1)c1ccccn1 |
| 294 |  | 153 | 45000 |  |  |  | N#Cc1ccc(-c2csc(N/N=C\c3cccs3)n2)cc1 |
| > 182 |  | 549 |  |  | Not Active |  | Fc1ccc(-c2csc(N/N=C\c3ccncc3)n2)c(F)c1 |
| > 93 | 40 | 1080 |  |  |  |  | Fc1ccc(-c2csc(N/N=C\c3ccc4c(c3)OCO4)n2)cc1 |
| > 207 | 40 | 482 |  |  |  |  | Fc1ccc(-c2csc(N/N=C\c3cccnc3)n2)cc1 |
| 6.2 |  | 1210 | 7550 |  |  |  | C/C(=N/Nc1nc(-c2ccc(F)cc2)cs1)c1nccs1 |
|  |  |  |  | Not Active | Not Active |  | C/C(=N/Nc1nc(-c2ccc([N+](=O)[O-])cc2)cs1)c1cc2ccccc2oc1=O |
|  |  |  |  | Not Active | Not Active |  | O=[N+]([O-])c1ccc(-c2csc(N/N=C\c3ccc4c(c3)OCO4)n2)cc1 |
| 421 |  | 13 | 5460 |  |  |  | C/C(=N/Nc1nc(-c2ccc(F)cc2F)cs1)c1nccs1 |
| > 890 | 40 | 112 |  |  |  |  | Fc1ccc(-c2csc(N/N=C\c3ccncc3)n2)cc1 |
| > 7620 |  | 13.1 |  |  | Not Active |  | C/C(=N/Nc1nc(-c2ccc([N+](=O)[O-])cc2)cs1)c1ccncc1 |
| > 5990 | 40 | 16.7 |  |  |  |  | C/C(=N/Nc1nc(-c2ccc(F)cc2F)cs1)c1ccncc1 |
|  | 40 |  |  |  |  | 40 | O=[N+]([O-])c1ccc(-c2csc(N/N=C\c3cccs3)n2)cc1 |
|  |  |  |  | Not Active | Not Active |  | C/C(=N/Nc1nc(-c2ccc(C#N)cc2)cs1)c1cc2ccccc2oc1=O |
|  |  | 298 |  |  | Not Active |  | C/C(=N/Nc1nc(-c2ccc([N+](=O)[O-])cc2)cs1)c1cccs1 |
| > 6030 | 40 | 16.6 |  |  |  |  | Fc1ccc(-c2csc(N/N=C\c3cccs3)n2)c(F)c1 |

| Ratio IC50 (Homo sapiens) | inhibition at 100 µM [1] [%] | IC50 [2] [nM] | IC50 [3] [nM] | inhibition (INH) [4] | inhibition (INH) [1] | inhibition at 100 µM [4] [%] | SMILES |
| --- | --- | --- | --- | --- | --- | --- | --- |
|  |  |  |  | Not Active | Not Active |  | O=[N+]([O-])c1ccc(-c2csc(N/N=C\c3cccc4ccccc34)n2)cc1 |
| > 7.8 | 40 | 12800 |  |  |  |  | Fc1ccc(-c2csc(N/N=C\c3cccc4ccccc34)n2)cc1 |
| 1.4 |  | 2000 | 2850 |  |  |  | C/C(=N/Nc1nc(-c2ccc(C#N)cc2)cs1)c1nccs1 |
| > 727 | 40 | 138 |  |  |  |  | Fc1ccc(-c2csc(N/N=C\c3cccc4ccccc34)n2)c(F)c1 |
| > 39400 | 40 | 2.54 |  |  |  |  | C/C(=N/Nc1nc(-c2ccc(F)cc2)cs1)c1ccncc1 |
| > 295 | 40 | 338 |  |  |  |  | Fc1ccc(-c2csc(N/N=C\c3cccs3)n2)cc1 |
|  | 40 |  |  |  |  | 40 | C/C(=N/Nc1nc(-c2ccc(C#N)cc2)cs1)c1ccccc1 |
| > 131 |  | 762 |  |  | Not Active |  | N#Cc1ccc(-c2csc(N/N=C\c3c[nH]c4ccccc34)n2)cc1 |
| > 2490 | 40 | 40.1 |  |  |  |  | C/C(=N/Nc1nc(-c2ccc(F)cc2F)cs1)c1ccco1 |
|  | 40 |  |  |  |  | 40 | O=[N+]([O-])c1ccc(-c2csc(N/N=C\c3ccco3)n2)cc1 |
|  |  |  |  | Not Active | Not Active |  | O=[N+]([O-])c1ccc(-c2csc(N/N=C\c3ccncc3)n2)cc1 |
| > 70 |  | 1420 |  |  | Not Active |  | C/C(=N/Nc1nc(-c2ccc(F)cc2F)cs1)c1cc2ccccc2oc1=O |
| > 32 | 40 | 3110 |  |  |  |  | C/C(=N/Nc1nc(-c2ccc(C#N)cc2)cs1)c1cccs1 |
| 1720 |  | 24.3 | 41700 |  |  |  | C/C(=N/Nc1nc(-c2ccc(F)cc2)cs1)c1ccccn1 |
| 44 |  | 436 | 19100 |  |  |  | C/C(=N/Nc1nc(-c2ccc(C#N)cc2)cs1)c1ccncc1 |
|  |  |  |  | Not Active | Not Active |  | O=[N+]([O-])c1ccc(-c2csc(N/N=C\c3cccnc3)n2)cc1 |
| > 106 | 40 | 947 |  |  |  |  | N#Cc1ccc(-c2csc(N/N=C\c3cccnc3)n2)cc1 |
| > 332 | 40 | 301 |  |  |  |  | N#Cc1ccc(-c2csc(N/N=C\c3ccc4c(c3)OCO4)n2)cc1 |

| SMILES | Ratio IC50 (Homo sapiens) | inhibition at 100 µM [1] [%] | IC50 [2] [nM] | IC50 [3] [nM] | inhibition (INH) [4] | inhibition (INH) [1] | inhibition at 100 µM [4] [%] |
| --- | --- | --- | --- | --- | --- | --- | --- |
| O=C(NCCN1CCOCC1)c1ccc(Cl)cc1 [MOCLOBEMIDE] |  |  |  |  | Not Active |  |  |

— ChEMBL document CHEMBL2150850, “Recent advances in the development of selective human MAO-B inhibitors: (hetero)arylidene-(4-substituted-thiazol-2-yl)hydrazines” (Eur J Med Chem, 2012)
